Source: patent US20110207760A1, “SN-38 COMPOSITIONS” (priority 2010, published 2011)

Columns and labels:
[1] = room temperature; cited from earlier work
[2] = Pharmacokinetics of SN-38 and SN-38G after i.v. dosing of SN-38 in 40% SBECD; assay type: in vivo, Female Sprague-Dawley rats; details: female, Sprague-Dawley, rat, in vivo, iv
Description: Female Sprague-Dawley rats, 4 animals per group received i.v. injections of SN-38 (doses 0.65 mg/kg and 2 mg/kg) in 40% SBECD. The SN-38 solution for the treatment was prepared by the dilution of concentrated composition of the Example 1 with water. The blood plasma samples were collected from each group of animals, extracted using liquid extraction with cold methanol/acetonitrile mixture (1:1 v/v), and analyzed using a HPLC method with fluorescent detection. The results, including levels of SN-38 and SN-38G in plasma and calculated values of area under the curve (AUC) for SN-38 and SN-38G are presented in Tables 5 and 6 below.

[3] = Dissolution of SN-38 in 60% (w/w) aqueous SBECD at 34° C. (HPLC); assay type: physicochemical; details: Example 2: 60% (w/w) aqueous SBECD, 48 hours, filtered
Description: (§1) Aliquots of the resultant SN-38 composition in aqueous SBECD were diluted 6 times with water, and further diluted with 10% (w/w) aqueous SBECD to obtain samples having a concentration suitable for HPLC analysis. The samples were analyzed by HPLC using column Symmetry Shield C18 3.5 μ, 50×4.6 mm (Waters), water (0.1% TFA)—acetonitrile (0.1% TFA) gradient and UV detection at 225 nm and 260 nm. The concentrations of SN-38 in the samples were determined by comparison of the area under the peak with the results obtained from analysis of standard solutions.
A sample of 4 g of 60% (w/w) aqueous SBECD was mixed with 2 mg of SN-38, and the mixture was incubated at 34° C. with constant mixing for 48 hours. The mixture was then filtered through 0.2 micrometer nylon filter and analyzed by HPLC as described in Example 1. The concentration of SN-38 in solution was 0.16 mg/g.

[4] = Dissolution of SN-38 in aqueous SBECD at 100° C. (HPLC); assay type: physicochemical; details: boiling water bath 1 hour, 24 hours room temperature
Description: 37.6 mL water was added to 62.4 g sodium sulfobutyl ether beta-cyclodextrin (having a substitution level of about 7, as determined by NMR, and a water content of 3.9%, as determined by Karl-Fisher method), and was mixed until homogenous. The resulting viscous liquid was filtered through a 0.2 micrometer nylon filter to produce 60% (w/w) clear aqueous solution of SBECD. The density of this solution was 1.29 g/mL.
2 mg of SN-38 was added to 4g of such 60% (w/w) aqueous SBECD, and the mixture heated in a boiling water bath for 1 hour, allowed to cool and kept at room temperature for 24 hours, and then filtered through a 0.2 micrometer nylon filter with a 1 micrometer glass fiber prefilter. A clear yellow viscous liquid was produced.
as §1
4 g samples of aqueous SBECD having a concentration of 20%, 30%, 40%, 50% and 60% (w/w), respectively, were mixed with 2 mg of SN-38. The mixtures were heated in boiling water bath for 1 hour and then were kept for 24 hours at room temperature. The mixtures were then filtered through a 0.2 micrometer nylon filter and analyzed by HPLC as described in Example 1.

[5] = Physical stability of SN-38 in diluted aqueous cyclodextrin solutions (HPLC); assay type: physicochemical; details: for Concentration of SN-38 relative to time 0 h: room temperature
Description: as §1
The SN-38 solution prepared as in the Example 1 was diluted with water, by weight, to obtain solutions containing respectively 5% SBECD, 10% SBECD, and 20% SBECD. All solutions were kept at room temperature and periodically analyzed by HPLC using the method described in the Example 1.
(§2) A solution of SN-38 in hydroxypropyl beta-cyclodextrin (HPbCD) was prepared using the procedure described in the Example 1. This solution was subsequently diluted with water, by weight, to obtain HPbCD concentration 20%. The relative change of SN-38 concentration in this solution after 70 hours was determined as described above, and is noted in Table 3 below.
as §2, with “in dimethyl” for “in hydroxypropyl”, “beta-cyclodextrin (DMbCD)” for “beta-cyclodextrin (HPbCD)”, “obtain DMbCD” for “obtain HPbCD”, “after 22.5” for “after 70”, “Table 4” for “Table 3”

## CCc1c2c(nc3ccc(O)cc13)-c1cc3c(c(=O)n1C2)COC(=O)[C@]3(O)CC [SN-38, (4S)-4,11-Diethyl-4,9-dihydroxy-1H-pyrano[3′,4′:6,7]indolizino[1,2-b]quinoline-3,14(4H,12H)dione]
[1]
  solubility in water: about 0.00008 mg/mL
[2]; 0.65 mg/kg
  AUC: 106 ng·h/mL
  Ratio AUC SN-38/SN-38G: 0.39
  concentration at 0.17 h: 157 ng/mL
  concentration at 0.5 h: 41.3 ng/mL
  concentration at 0.75 h: 26.1 ng/mL
  concentration at 1 h: 18.2 ng/mL
  concentration at 3 h: 5.8 ng/mL
  concentration at 6 h: 1.2 ng/mL
[2]; 2 mg/kg
  AUC: 323 ng·h/mL
  concentration at 0.17 h: 625 ng/mL
  concentration at 0.5 h: 157 ng/mL
  concentration at 0.75 h: 51.4 ng/mL
  concentration at 1 h: 29.8 ng/mL
  concentration at 3 h: 5.5 ng/mL
  concentration at 6 h: 5.3 ng/mL
[3]
  concentration of SN-38 in solution: 0.16 mg/g
[4]; 20% SBECD
  SN-38 concentration: 0.03 mg/g of solution
[4]; 30% SBECD
  SN-38 concentration: 0.07 mg/g of solution
[4]; 40% SBECD
  SN-38 concentration: 0.13 mg/g of solution
[4]; 50% SBECD
  SN-38 concentration: 0.23 mg/g of solution
[4]; 60% SBECD
  SN-38 concentration: 0.40 mg/g of solution
[4]; Example 1: 60% (w/w) aqueous SBECD, filtered
  concentration of SN-38 in the product solution: 0.40 mg/g of composition
[5]; 5% SBECD, 0 h
  Concentration of SN-38 relative to time 0 h: 100.0
[5]; 5% SBECD, 5 h
  Concentration of SN-38 relative to time 0 h: 96.6
[5]; 5% SBECD, 23 h
  Concentration of SN-38 relative to time 0 h: 91.4
[5]; 5% SBECD, 47 h
  Concentration of SN-38 relative to time 0 h: 85.2
[5]; 5% SBECD, 71 h
  Concentration of SN-38 relative to time 0 h: 79.2
[5]; 5% SBECD, 98 h
  Concentration of SN-38 relative to time 0 h: 77.9
[5]; 10% SBECD, 0 h
  Concentration of SN-38 relative to time 0 h: 100.0
[5]; 10% SBECD, 5 h
  Concentration of SN-38 relative to time 0 h: 97.9
[5]; 10% SBECD, 23 h
  Concentration of SN-38 relative to time 0 h: 94.9
[5]; 10% SBECD, 47 h
  Concentration of SN-38 relative to time 0 h: 90.8
[5]; 10% SBECD, 71 h
  Concentration of SN-38 relative to time 0 h: 87.7
[5]; 10% SBECD, 98 h
  Concentration of SN-38 relative to time 0 h: 85.5
[5]; 20% DMbCD, 0 h
  relative change of SN-38 concentration: 100.0
[5]; 20% DMbCD, 22.5 h
  relative change of SN-38 concentration: 42.5
[5]; 20% HPbCD, 0 h
  relative change of SN-38 concentration: 100.0
[5]; 20% HPbCD, 70 h
  relative change of SN-38 concentration: 63.0
[5]; 20% SBECD, 0 h
  Concentration of SN-38 relative to time 0 h: 100.0
[5]; 20% SBECD, 5 h
  Concentration of SN-38 relative to time 0 h: 99.5
[5]; 20% SBECD, 23 h
  Concentration of SN-38 relative to time 0 h: 97.6
[5]; 20% SBECD, 47 h
  Concentration of SN-38 relative to time 0 h: 96.3
[5]; 20% SBECD, 71 h
  Concentration of SN-38 relative to time 0 h: 95.1
[5]; 20% SBECD, 98 h
  Concentration of SN-38 relative to time 0 h: 93.2
